Results on seven molecules are retold here after patent US9221833B2, “Antiviral compounds” (GILEAD PHARMASSET LLC, priority 2011, dated 2015).

Molecules are shown by their SMILES. pEC50: −log10 of the molar value. Like-named read-outs stand apart in the source and are kept apart here.

What all share (format): cell-based, HCV
For assay [1], the system named is genotype 2a J6 strain NS5A gene (M31 present). The experiment in a line: Replicon assay, NS5A chimeric 2a JFH-1 replicon with 2a J6 NS5A, transient (t) or stable (s), Huh-Lunet cells. How it is done: (§1) Evaluation of cell-based anti-HCV activity: Antiviral potency (EC50) was determined using a Renilla luciferase (RLuc)-based HCV replicon reporter assay. […] To perform the assay for genotype 2a (with M31 present in NS5A) or 2b, NS5A chimeric genotype 2a JFH-1 replicons that encodes a RLuc-Neo reporter and either genotype 2a J6 strain NS5A gene or genotype 2b MD2b-1 strain NS5A gene (both with M31 present) respectively, were either transiently transfected (t) into Huh-Lunet cells or were established as stably replicating replicon cells (s) is provided. Either cells were dispensed into 384-well plates for EC50 assays. To perform the assay for genotype 3 and 4, NS5A chimeric genotype 1b Con1 replicons that encodes a Pi-RLuc reporter and either genotype 3a S52 strain NS5A gene or genotype 4a ED43 strain NS5A gene respectively, were transiently transfected (t) into Huh-Lunet cells, which were subsequently dispensed into 384-well plates. Compounds were dissolved in DMSO at a concentration of 10 mM and diluted in DMSO either manually or using an automated pipeting instrument. Serially 3-fold diluted compounds were either manually mixed with cell culture media and added to the seeded cells or directly added to the cells using an automated instrument. […] 72 hours later, cells were lysed and Renilla luciferase activity quantified as recommended by the manufacturer (Promega-Madison, Wis.). Non-linear regression was performed to calculate EC50 values.
A general note: In antiviral work, replicon cells carry a viral genome segment that copies itself.

Assay [2] has as its system genotype 2b MD2b-1 strain NS5A gene (M31 present). The experiment in a line: microbe, parasite or virus in culture. How it is done:
as §1

The subject of the next assay is genotype 1a H77 replicon. The experiment in a line: microbe, parasite or virus in culture. The note with it: Hepatitis C virus; for pEC50: read-out: 1a. The procedure:
as §1

Assay [3] relates to genotype 2a JFH-1 replicon (L31 present in NS5A). The experiment in a line: microbe, parasite or virus in culture. The settings on record: for EC50: Hepatitis C virus, read-out: 2a JFH (nM); for pEC50: genotype 2a JFH replicon, read-out: 2a JFH. The procedure: as §1
For assay [4] the test system is unchanged. The experiment in a line: microbe, parasite or virus in culture. The settings on record: Hepatitis C virus, read-out: 2a JFH.
In assay [5] the test system is genotype 3a S52 strain NS5A gene. The experiment in a line: Replicon assay, NS5A chimeric 1b Con1 replicon with 3a NS5A, transiently transfected Huh-Lunet cells. The settings on record: for pEC50: read-out: 3a; for EC50: read-out: 3a (nM). The procedure:
as §1

For a further assay, the system named is Q30R in genotype 1a NS5A. The experiment in a line: Antiviral potency against resistance mutant, 1a Pi-Rluc replicon in Huh-7-derived cured-51 cells. The note with it: for pEC50: read-out: 1a Q30R. How it is done: as §1
To determine the antiviral potency (EC50) against resistance mutants, resistance mutations, including M28T, Q30R, Q30H, L31M, and Y93C in genotype 1a NS5A and Y93H in genotype 1b NS5A, were introduced individually into either 1a Pi-Rluc or 1b Pi-Rluc replicons by site directed mutagenesis. Replicon RNA of each resistant mutant was transiently transfected into Huh-7-derived cured-51 cells and antiviral potency was determined on these transfected cells as described above.

Assay [6] relates to genotype 1b Con1 replicon. The experiment in a line: microbe, parasite or virus in culture. The note with it: read-out: 1b. How it is done:
as §1

Assay [7] concerns genotype 4a ED43 strain NS5A gene. The experiment in a line: Replicon assay, NS5A chimeric 1b Con1 replicon with 4a NS5A, transiently transfected Huh-Lunet cells. The settings on record: for pEC50: read-out: 4a. The procedure:
as §1, with “[…],” for “were transiently transfected (t) into Huh-Lunet cells,”

The mark [8] stands for this setting: Hepatitis C virus, read-out: 2a J6.
The mark [9] stands for this setting: Hepatitis C virus, read-out: 2b.

As to `CCC(C)[C@H](NC(=O)OC)C(=O)N1C[C@@H](C)CC1c1ncc(-c2ccc3c(c2)COc2cc4c(ccc5nc([C@@H]6C[C@H](COC)CN6C(=O)[C@@H](NC(=O)OC)C(C)C)[nH]c54)cc2-3)[nH]1` (stereo in doubt) [Example QC, Methyl {(2S)-1-[(2S,4S)-2-(9-{2-[(2S,4S)-1-{(2S,3R)-2-[(methoxycarbonyl)amino]-3-methylpentanoyl}-4-methylpyrrolidin-2-yl]-1H-imidazol-5-yl}-1,11-dihydroisochromeno[4′,3′:6,7]naphtho[1,2-d]imidazol-2-yl)-4-(methoxymethyl)pyrrolidin-1-yl]-3-methyl-1-oxobutan-2-yl}carbamate], the pEC50 (in [1] (setting [8]); in assay [2] (setting [9]); in the assay with genotype 1a H77 replicon; in assay [4]) was > 9.00 throughout. The EC50 in assay [3] was 0.008 nM.

`COC[C@H]1C[C@@H](c2ncc(-c3ccc4c(c3)COc3cc5c(ccc6nc([C@@H]7CCCN7C(=O)[C@H](NC(=O)OC)c7ccccc7)[nH]c65)cc3-4)[nH]2)N(C(=O)[C@@H](NC(=O)OC)C(C)C)C1` [Example PH, methyl {(2S)-1-[(2S,4S)-2-(5-{2-[(2S)-1-{(2R)-2-[(methoxycarbonyl)amino]-2-phenylacetyl}pyrrolidin-2-yl]-1,11-dihydroisochromeno[4′,3′:6,7]naphtho[1,2-d]imidazol-9-yl}-1H-imidazol-2-yl)-4-(methoxymethyl)pyrrolidin-1-yl]-3-methyl-1-oxobutan-2-yl}carbamate]: the pEC50 (in assay [5] (Hepatitis C virus); in assay [1] (setting [8]); in [2] (setting [9]); in the assay with genotype 1a H77 replicon; in [4]; in the assay with Q30R in genotype 1a NS5A (Hepatitis C virus)) was > 9.00 throughout. The EC50 in assay [5] (Hepatitis C virus) stood at 0.029 nM; in [1] (Hepatitis C virus, read-out: 2a J6 (t) (nM)), 0.055 nM; in assay [2] (Hepatitis C virus, read-out: 2b (t) (nM)), 0.042 nM; in the assay on genotype 1a H77 replicon (read-out: 1a (nM)), 0.024 nM; in [3], 0.014 nM; in the assay with Q30R in genotype 1a NS5A (Hepatitis C virus, read-out: 1a Q30R (nM)), 0.051 nM.

Take `COC[C@H]1C[C@@H](c2nc3ccc4cc5c(cc4c3[nH]2)OCc2cc(-c3cnc([C@@H]4CCCN4C(=O)[C@H](NC(=O)OC)c4ccccc4)[nH]3)ccc2-5)N(C(=O)[C@@H](NC(=O)OC)C(C)OC)C1` (stereo partly drawn) [Example OU, Methyl {(1R)-2-[(2S)-2-(5-{2-[(2S,4S)-1-{(2S)-2-[(methoxycarbonyl)amino]-3-methoxybutanoyl}-4-(methoxymethyl)pyrrolidin-2-yl]-1,11-dihydroisochromeno[4′,3′:6,7]naphtho[1,2-d]imidazol-9-yl}-1H-imidazol-2-yl)pyrrolidin-1-yl]-2-oxo-1-phenylethyl}carbamate]: the pEC50 (in [2] (setting [9]); with genotype 1a H77 replicon; in [4]) was > 9.00 throughout.

Consider `COC[C@@H]1C[C@@H](c2nc3ccc4cc5c(cc4c3[nH]2)OCc2cc(-c3cnc([C@@H]4CCCN4C(=O)[C@@H](NC(=O)OC)C(C)C)[nH]3)ccc2-5)N(C(=O)[C@H](NC(=O)OC)c2ccccc2)C1` [Example MQ, methyl{(1R)-2-[(2S,4R)-2-(9-{2-[(2S)-1-{(2S)-2-[(methoxycarbonyl)amino]-3-methylbutanoyl}pyrrolidin-2-yl)-1H-imidazol-5-yl]-1,11-dihydroisochromeno[4′,3′:6,7]naphtho[1,2-d]imidazol-2-yl}-4-(methoxymethyl)pyrrolidin-1-yl]-2-oxo-phenylethyl}carbamate], for which the pEC50 in [5] (genotype 3a, EC50 range class) is > 9.00; in [5] (genotype 3a), 10.80; in [1] (genotype 2a J6, EC50 range class, transiently transfected cells (t), if unavailable stably replicating cells (s), read-out: 2a J6), > 9.00; in [1] (stably replicating cells (s), read-out: 2a J6 (s)) it was 10.02; in [1] (transiently transfected cells (t), read-out: 2a J6 (t)), 10.77; in assay [2] (genotype 2b, EC50 range class, transiently transfected cells (t), if unavailable stably replicating cells (s), read-out: 2b), > 9.00. In addition, the pEC50 in [2] (stably replicating cells (s), read-out: 2b (s)) is 10.64; in assay [2] (transiently transfected cells (t), read-out: 2b (t)), 11.05; in assay [3] (EC50 range class), > 9.00; in [3] it was 11.40; in assay [6], 10.96; in assay [7] (genotype 4a, EC50 range class, transiently transfected cells (t), if unavailable stably replicating cells (s)), > 9.00. The pEC50 in the assay with Q30R in genotype 1a NS5A (genotype 1a Q30R resistance mutant, EC50 range class) is > 9.00; in the assay with Q30R in genotype 1a NS5A (genotype 1a Q30R resistance mutant), 10.64.

Turning to `CC[C@@H](C)C(NC(=O)OC)C(=O)N1C[C@@H](COC)C[C@H]1c1nc2ccc3cc4c(cc3c2[nH]1)OCc1cc(-c2cnc([C@@H]3C[C@H](C)CN3C(=O)[C@@H](NC(=O)OC)[C@H](C)CC)[nH]2)ccc1-4` (stereo partly drawn) [Example QE, Methyl {(3R)-1-[(2S,4S)-2-(9-{2-[(2S,4S)-1-{(2S,3R)-2-[(methoxycarbonyl)amino]-3-methylpentanoyl}-4-methylpyrrolidin-2-yl]-1H-imidazol-5-yl}-1,11-dihydroisochromeno[4′,3′:6,7]naphtho[1,2-d]imidazol-2-yl)-4-(methoxymethyl)pyrrolidin-1-yl]-3-methyl-1-oxopentan-2-yl}carbamate], the pEC50 (in assay [1] (setting [8]); in assay [2] (setting [9]); with genotype 1a H77 replicon; in [4]) was > 9.00 in each case.

`COC(=O)N[C@H](C(=O)N1CCC[C@H]1c1nc2c([nH]1)CCc1cc3c(cc1-2)OCc1cc(-c2cnc([C@@H]4CCCN4C(=O)[C@H](NC(=O)OC)c4ccccc4)[nH]2)ccc1-3)C(C)C` [Example MF, methyl [1-(2-{5-[2-(1-{[(methoxycarbonyl)amino]-3-methyl-1-oxobutan-2-yl}pyrrolidin-2-yl)-1,4,5,11-tetrahydroisochromeno[4′,3′:6,7]naphtho[1,2-d]imidazol-9-yl]-1H-imidazol-2-yl}pyrrolidin-1-yl)-phenyl-1-oxoacet-2-yl]carbamate]: the pEC50 (in assay [5] (Hepatitis C virus); in assay [1] (setting [8]); in assay [2] (setting [9]); with genotype 1a H77 replicon; in assay [4]; in assay [7] (Hepatitis C virus)) was > 9.00 each time. Further, the pEC50 in the assay on Q30R in genotype 1a NS5A (Hepatitis C virus) was > 9.00.

With `COC(=O)N[C@H](C(=O)N1CCC[C@H]1c1ncc(-c2ccc3c(c2)COc2cc4c(cc2-3)CCc2[nH]c([C@@H]3CCCN3C(=O)[C@H](NC(=O)OC)c3ccccc3)nc2-4)[nH]1)C(C)C` [Example MG], the pEC50 (in assay [5] (Hepatitis C virus); in assay [1] (setting [8]); in assay [2] (setting [9]); in the assay on genotype 1a H77 replicon; in assay [4]; in assay [7] (Hepatitis C virus)) was > 9.00 each time. Besides, the pEC50 with Q30R in genotype 1a NS5A (Hepatitis C virus) was > 9.00. In addition, the EC50 is 0.01 nM in assay [5] (Hepatitis C virus); 0.07 nM in assay [2] (Hepatitis C virus, read-out: 2b (s) (nM)); 0.08 nM in assay [7] (Hepatitis C virus, read-out: 4a (s) (nM)).
